Measurements reported in patent publication US8778951B2, “Heteroaryl compounds and their uses” (Novartis AG, priority 2009, dated 2014).
pIC50: −log10 of the molar value.

Target: Cdk9/cyclinT1 (Homo sapiens (Human), UniProt P50750)
Test: Cdk9/CyclinT1 IMAP Protocol (fluorescence polarization kinase assay)
Format: biochemical
Conditions: Table 2; generated using one of the two Cdk9/cyclinT1 assays (IMAP or Alpha Screen), not specified which; unit inferred
Experimental: Cdk9/CyclinT1 IMAP Protocol
The biological activity of the compounds of the invention can be determined using the assay described below.
Cdk9/cyclinT1 is purchased from Millipore, cat #14-685. The final total protein concentration in the assay 4 nM. […] The final concentration of peptide substrate is 100 nM. The ATP substrate (Adenosine-5′-triphosphate) is purchased from Roche Diagnostics, cat#1140965. The final concentration of ATP substrate is 6 uM. IMAP (Immobilized Metal Assay for Phosphochemicals) Progressive Binding reagent is purchased from Molecular Devices, cat#R8139. Fluorescence polarization (FP) is used for detection. The 5TAMRA-cdk7tide peptide is phosphorylated by Cdk9/cyclinT1 kinase using the ATP substrate. The Phospho-5TAMRA-cdk7tide peptide substrate is bound to the IMAP Progressive Binding Reagent. The binding of the IMAP Progressive Binding Reagent changes the fluorescence polarization of the 5TAMRA-cdk7tide peptide which is measured at an excitation of 531 nm and FP emission of 595 nm. Assays are carried out in 100 mM Tris, pH=7.2, mM MgCl2, 0.05% NaN3, 0.01% Tween-20, 1 mM dithiothreitol and 2.5% dimethyl sulfoxide. IMAP Progressive Binding Reagent is diluted 1:800 in 100% 1× Solution A from Molecular Devices, cat#R7285.
General protocol is as follows: To 10 ul of cdk9/cyclinT1, 0.5 ul of test compound in dimethyl sulfoxide is added. 5TAMRA-cdk7tide and ATP are mixed. 10 ul of the 5TAMRA-cdk7tide/ATP mix is added to start the reaction. The reaction is allowed to proceed for 4.5 hrs. 60 uL of IMAP Progressive Binding Reagent is added. After >1 hr of incubation, plates are read on the Envision 2101 from Perkin-Elmer. The assay is run in a 384-well format using black Corning plates, cat#3573.

Sequence of Cdk9/cyclinT1 (P50750 whole entry): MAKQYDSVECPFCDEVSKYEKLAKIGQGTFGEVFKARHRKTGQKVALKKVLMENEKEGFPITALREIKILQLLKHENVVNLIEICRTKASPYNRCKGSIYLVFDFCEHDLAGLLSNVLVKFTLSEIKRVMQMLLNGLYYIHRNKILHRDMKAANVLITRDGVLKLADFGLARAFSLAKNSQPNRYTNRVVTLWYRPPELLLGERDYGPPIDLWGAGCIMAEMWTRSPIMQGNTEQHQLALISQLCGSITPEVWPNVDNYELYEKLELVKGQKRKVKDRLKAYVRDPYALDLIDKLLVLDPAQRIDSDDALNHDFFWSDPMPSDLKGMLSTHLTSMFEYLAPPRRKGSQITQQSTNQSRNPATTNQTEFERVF
Sequence of Cdk9/cyclinT1 (O60563 whole entry partner): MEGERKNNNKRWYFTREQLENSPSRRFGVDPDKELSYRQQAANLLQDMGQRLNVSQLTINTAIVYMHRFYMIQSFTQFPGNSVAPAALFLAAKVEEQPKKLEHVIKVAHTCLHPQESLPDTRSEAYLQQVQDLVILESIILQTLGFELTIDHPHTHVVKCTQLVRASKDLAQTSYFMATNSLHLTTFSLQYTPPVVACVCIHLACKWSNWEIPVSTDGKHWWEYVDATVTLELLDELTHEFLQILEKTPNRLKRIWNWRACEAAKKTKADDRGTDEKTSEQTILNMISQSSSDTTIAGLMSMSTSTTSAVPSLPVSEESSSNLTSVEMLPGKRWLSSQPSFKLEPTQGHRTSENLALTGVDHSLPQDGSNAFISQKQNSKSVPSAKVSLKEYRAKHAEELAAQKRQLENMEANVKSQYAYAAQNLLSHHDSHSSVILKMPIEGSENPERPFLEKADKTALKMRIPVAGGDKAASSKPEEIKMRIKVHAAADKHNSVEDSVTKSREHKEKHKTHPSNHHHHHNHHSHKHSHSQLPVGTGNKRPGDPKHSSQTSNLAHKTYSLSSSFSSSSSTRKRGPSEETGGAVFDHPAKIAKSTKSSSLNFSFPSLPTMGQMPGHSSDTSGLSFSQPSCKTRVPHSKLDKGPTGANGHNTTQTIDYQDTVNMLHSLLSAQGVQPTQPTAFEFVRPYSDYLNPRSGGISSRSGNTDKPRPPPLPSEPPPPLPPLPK

| SMILES | pIC50 |
| --- | --- |
| N[C@H]1CC[C@H](Nc2cc(-c3cccc(NCc4cccc(Cl)c4)n3)c(Cl)cn2)CC1 [Compound 37] | 8.10 |
| N[C@H]1CC[C@H](Nc2cc(-c3cccc(NCc4cncc(F)c4)n3)c(Cl)cn2)CC1 [Compound 38] | 8.10 |
| N[C@H]1CC[C@H](Nc2cc(-c3cccc(NCc4cc(F)ccc4F)n3)c(Cl)cn2)CC1 [Compound 39] | 8.05 |
| N[C@H]1CC[C@H](Nc2cc(-c3cccc(NCc4ccccc4F)n3)c(Cl)cn2)CC1 [Compound 41] | 7.89 |
| N[C@H]1CC[C@H](Nc2cc(-c3cccc(NCc4ccccc4Cl)n3)c(Cl)cn2)CC1 [Compound 42] | 7.32 |
| COc1cccc(CNc2cccc(-c3cc(N[C@H]4CC[C@H](N)CC4)ncc3Cl)n2)c1 [Compound 44] | 7.95 |
| N[C@H]1CC[C@H](Nc2cc(-c3cccc(NCc4cccc(C(F)(F)F)c4)n3)c(Cl)cn2)CC1 [Compound 47] | 8.10 |
| N[C@H]1CC[C@H](Nc2cc(-c3cccc(NCc4cccc(Br)c4)n3)c(Cl)cn2)CC1 [Compound 48] | 8.10 |
| N[C@H]1CC[C@H](Nc2cc(-c3cccc(NCc4cccc(O)c4)n3)c(Cl)cn2)CC1 [Compound 49] | 7.84 |
| Cc1ccc(CNc2cccc(-c3cc(N[C@H]4CC[C@H](N)CC4)ncc3Cl)n2)cc1 [Compound 51] | 7.76 |
| N[C@H]1CC[C@H](Nc2cc(-c3cccc(NCc4ccc(C(F)(F)F)cc4)n3)c(Cl)cn2)CC1 [Compound 52] | 7.72 |
| N[C@H]1CC[C@H](Nc2cc(-c3cccc(NCc4ccc(OC(F)F)cc4)n3)c(Cl)cn2)CC1 [Compound 53] | 7.95 |
| N[C@H]1CC[C@H](Nc2cc(-c3cccc(NCc4ccc(OC(F)(F)F)cc4)n3)c(Cl)cn2)CC1 [Compound 54] | 7.64 |
| N[C@H]1CC[C@H](Nc2cc(-c3cccc(NCc4ccc(Cl)cc4)n3)c(Cl)cn2)CC1 [Compound 55] | 8.10 |
| NC[C@H]1CC[C@H](Nc2cc(-c3cccc(NCC4CCCCC4)n3)c(Cl)cn2)CC1 [Compound 56] | 7.41 |
| NC[C@H]1CC[C@H](Nc2cc(-c3cccc(NCc4ccccc4)n3)c(Cl)cn2)CC1 [Compound 57] | 7.49 |
| NC[C@H]1CC[C@H](Nc2cc(-c3cccc(NCc4cccnc4)n3)c(Cl)cn2)CC1 [Compound 58] | 7.51 |
| NC[C@H]1CC[C@H](Nc2cc(-c3cccc(NCc4cncc(F)c4)n3)c(Cl)cn2)CC1 [Compound 59] | 8.04 |
| NC[C@H]1CC[C@H](Nc2cc(-c3cccc(NCc4ccncc4)n3)c(Cl)cn2)CC1 [Compound 60] | 8.10 |
| NC[C@H]1CC[C@H](Nc2cc(-c3cccc(NCc4cc(F)ccc4F)n3)c(Cl)cn2)CC1 [Compound 61] | 7.74 |
| NC[C@H]1CC[C@H](Nc2cc(-c3cccc(NCc4cccc(Cl)c4)n3)c(Cl)cn2)CC1 [Compound 62] | 8.10 |
| NC[C@H]1CC[C@H](Nc2cc(-c3cccc(NCc4cccc(OC(F)F)c4)n3)c(Cl)cn2)CC1 [Compound 64] | 7.26 |
| NC[C@H]1CC[C@H](Nc2cc(-c3cccc(NCc4ccc(F)cc4)n3)c(Cl)cn2)CC1 [Compound 66] | 7.77 |

| SMILES | pIC50 |
| --- | --- |
| CC(C)(C)OC(=O)N1CCC(Nc2cc(-c3cccc(NCc4cccc(F)c4)n3)c(Cl)cn2)CC1 [Compound 67] | 5.59 |
| Clc1cnc(NC2CCNCC2)cc1-c1cccc(NCC2CCCCC2)n1 [Compound 68] | 6.56 |
| Clc1cnc(NC2CCNCC2)cc1-c1cccc(NCc2ccccc2)n1 [Compound 69] | 6.81 |
| Fc1cncc(CNc2cccc(-c3cc(NC4CCNCC4)ncc3Cl)n2)c1 [Compound 70] | 6.76 |
| Fc1cc(F)cc(CNc2cccc(-c3cc(NC4CCNCC4)ncc3Cl)n2)c1 [Compound 71] | 7.56 |
| Clc1cnc(NC2CCNCC2)cc1-c1cccc(NCc2ccncc2)n1 [Compound 72] | 6.94 |
| Clc1cccc(CNc2cccc(-c3cc(NC4CCNCC4)ncc3Cl)n2)c1 [Compound 73] | 7.45 |
| Fc1ccc(CNc2cccc(-c3cc(NC4CCNCC4)ncc3Cl)n2)cc1F [Compound 74] | 7.38 |
| N[C@H]1CC[C@H](Nc2cc(-c3cccc(NCC4CCCCCC4)n3)c(Cl)cn2)CC1 [Compound 75] | 7.87 |
| CN(Cc1ccccc1)c1cccc(-c2cc(N[C@H]3CC[C@H](N)CC3)ncc2Cl)n1 [Compound 76] | 7.96 |
| CN(Cc1cccc(F)c1)c1cccc(-c2cc(N[C@H]3CC[C@H](N)CC3)ncc2Cl)n1 [Compound 77] | 8.10 |
| CCS(=O)(=O)N[C@H]1CC[C@H](Nc2cc(-c3cccc(NCc4cccc(F)c4)n3)c(Cl)cn2)CC1 [Compound 78] | 7.62 |
| CCS(=O)(=O)NC[C@H]1CC[C@H](Nc2cc(-c3cccc(NCc4cccc(F)c4)n3)c(Cl)cn2)CC1 [Compound 79] | 8.10 |
| CN1CCC[C@H]1C(=O)N[C@H]1CC[C@H](Nc2cc(-c3cccc(NCc4cccc(F)c4)n3)c(Cl)cn2)CC1 [Compound 80] | 7.50 |
| O=C(N[C@H]1CC[C@H](Nc2cc(-c3cccc(NCc4cccc(F)c4)n3)c(Cl)cn2)CC1)c1cccnc1 [Compound 81] | 7.27 |
| CN(C)CC(=O)NC[C@H]1CC[C@H](Nc2cc(-c3cccc(NCc4cccc(F)c4)n3)c(Cl)cn2)CC1 [Compound 82] | 8.04 |
| CN1CCC[C@H]1C(=O)NC[C@H]1CC[C@H](Nc2cc(-c3cccc(NCc4cccc(F)c4)n3)c(Cl)cn2)CC1 [Compound 83] | 7.93 |
| O=C(NC[C@H]1CC[C@H](Nc2cc(-c3cccc(NCc4cccc(F)c4)n3)c(Cl)cn2)CC1)c1cccnc1 [Compound 84] | 7.85 |
| CN(C)CC(=O)N1CCC(Nc2cc(-c3cccc(NCc4cccc(F)c4)n3)c(Cl)cn2)CC1 [Compound 85] | 7.16 |
| CN1CCC[C@H]1C(=O)N1CCC(Nc2cc(-c3cccc(NCc4cccc(F)c4)n3)c(Cl)cn2)CC1 [Compound 86] | 7.09 |
| O=C(c1cccnc1)N1CCC(Nc2cc(-c3cccc(NCc4cccc(F)c4)n3)c(Cl)cn2)CC1 [Compound 87] | 7.16 |
| CCN[C@H]1CC[C@H](Nc2cc(-c3cccc(NCc4cccc(F)c4)n3)c(Cl)cn2)CC1 [Compound 88] | 7.96 |
| Clc1cnc(N[C@@H]2CCCNC2)cc1-c1cccc(NCC2CCCCC2)n1 [Compound 89] | 5.59 |

| SMILES | pIC50 |
| --- | --- |
| Clc1cnc(N[C@@H]2CCCNC2)cc1-c1cccc(NCC2CCOCC2)n1 [Compound 90] | 5.53 |
| Fc1cccc(CNc2cccc(-c3cc(N[C@@H]4CCCNC4)ncc3Cl)n2)c1 [Compound 91] | 6.47 |
| Fc1cc(F)cc(CNc2cccc(-c3cc(N[C@@H]4CCCNC4)ncc3Cl)n2)c1 [Compound 92] | 6.53 |
| Clc1cnc(N[C@@H]2CCCNC2)cc1-c1cccc(NCc2ccncc2)n1 [Compound 93] | 6.03 |
| Fc1ccc(CNc2cccc(-c3cc(N[C@@H]4CCCNC4)ncc3Cl)n2)cc1F [Compound 94] | 6.29 |
| Clc1cnc(N[C@H]2CCCNC2)cc1-c1cccc(NCC2CCCCC2)n1 [Compound 95] | 5.71 |
| Clc1cnc(N[C@H]2CCCNC2)cc1-c1cccc(NCC2CCOCC2)n1 [Compound 96] | 5.89 |
| Fc1cccc(CNc2cccc(-c3cc(N[C@H]4CCCNC4)ncc3Cl)n2)c1 [Compound 97] | 6.47 |
| Fc1cc(F)cc(CNc2cccc(-c3cc(N[C@H]4CCCNC4)ncc3Cl)n2)c1 [Compound 98] | 6.38 |
| Clc1cnc(N[C@H]2CCCNC2)cc1-c1cccc(NCc2ccncc2)n1 [Compound 99] | 6.17 |
| Fc1ccc(CNc2cccc(-c3cc(N[C@H]4CCCNC4)ncc3Cl)n2)cc1F [Compound 100] | 6.51 |
| N[C@H]1CC[C@H](Nc2cc(-c3cncc(NCc4cccc(F)c4)n3)c(Cl)cn2)CC1 [Compound 101] | 8.10 |
| CC(C)CN1CCC(Nc2cc(-c3cccc(NCc4cccc(F)c4)n3)c(Cl)cn2)CC1 [Compound 102] | 6.92 |
| CN1CCC(Nc2cc(-c3cccc(NCc4cccc(F)c4)n3)c(Cl)cn2)CC1 [Compound 103] | 6.87 |
| N[C@H]1CC[C@H](Nc2cc(-c3cccc(NC[C@H]4CCCO4)n3)c(Cl)cn2)CC1 [Compound 104] | 6.85 |
| CN(CC1CCOCC1)c1cccc(-c2cc(N[C@H]3CC[C@H](N)CC3)ncc2Cl)n1 [Compound 108] | 8.10 |
| Nc1ncc(CNc2cccc(-c3cc(N[C@H]4CC[C@H](N)CC4)ncc3Cl)n2)cn1 [Compound 109] | 7.80 |
| CN1CCN(C[C@H]2CC[C@H](Nc3cc(-c4cccc(NCc5cccc(F)c5)n4)c(Cl)cn3)CC2)CC1 [Compound 111] | 7.51 |
| Fc1cccc(CNc2cccc(-c3cc(N[C@H]4CC[C@H](CN5CCCC5)CC4)ncc3Cl)n2)c1 [Compound 112] | 7.56 |
| CNC(=O)[C@H]1CC[C@H](Nc2cc(-c3cccc(NCc4cccc(F)c4)n3)c(Cl)cn2)CC1 [Compound 113] | 7.30 |
| O[C@H]1CC[C@H](Nc2cc(-c3cccc(NCc4cccc(F)c4)n3)c(Cl)cn2)CC1 [Compound 114] | 8.10 |
